From patent publication US20260028365A1 (BIOGEN MA INC., priority 2022, published 2026) come the findings set out here.

A value given as a limit tells only on which side of the number the result lay.

In one experiment the target is Tyk2 (Homo sapiens (Human), UniProt P29597). As to the kind of experiment: pSTAT4 Cell Assay (MSD, NK92 cells). The class given is cell-based.
Sequence of Tyk2 (P29597 whole entry): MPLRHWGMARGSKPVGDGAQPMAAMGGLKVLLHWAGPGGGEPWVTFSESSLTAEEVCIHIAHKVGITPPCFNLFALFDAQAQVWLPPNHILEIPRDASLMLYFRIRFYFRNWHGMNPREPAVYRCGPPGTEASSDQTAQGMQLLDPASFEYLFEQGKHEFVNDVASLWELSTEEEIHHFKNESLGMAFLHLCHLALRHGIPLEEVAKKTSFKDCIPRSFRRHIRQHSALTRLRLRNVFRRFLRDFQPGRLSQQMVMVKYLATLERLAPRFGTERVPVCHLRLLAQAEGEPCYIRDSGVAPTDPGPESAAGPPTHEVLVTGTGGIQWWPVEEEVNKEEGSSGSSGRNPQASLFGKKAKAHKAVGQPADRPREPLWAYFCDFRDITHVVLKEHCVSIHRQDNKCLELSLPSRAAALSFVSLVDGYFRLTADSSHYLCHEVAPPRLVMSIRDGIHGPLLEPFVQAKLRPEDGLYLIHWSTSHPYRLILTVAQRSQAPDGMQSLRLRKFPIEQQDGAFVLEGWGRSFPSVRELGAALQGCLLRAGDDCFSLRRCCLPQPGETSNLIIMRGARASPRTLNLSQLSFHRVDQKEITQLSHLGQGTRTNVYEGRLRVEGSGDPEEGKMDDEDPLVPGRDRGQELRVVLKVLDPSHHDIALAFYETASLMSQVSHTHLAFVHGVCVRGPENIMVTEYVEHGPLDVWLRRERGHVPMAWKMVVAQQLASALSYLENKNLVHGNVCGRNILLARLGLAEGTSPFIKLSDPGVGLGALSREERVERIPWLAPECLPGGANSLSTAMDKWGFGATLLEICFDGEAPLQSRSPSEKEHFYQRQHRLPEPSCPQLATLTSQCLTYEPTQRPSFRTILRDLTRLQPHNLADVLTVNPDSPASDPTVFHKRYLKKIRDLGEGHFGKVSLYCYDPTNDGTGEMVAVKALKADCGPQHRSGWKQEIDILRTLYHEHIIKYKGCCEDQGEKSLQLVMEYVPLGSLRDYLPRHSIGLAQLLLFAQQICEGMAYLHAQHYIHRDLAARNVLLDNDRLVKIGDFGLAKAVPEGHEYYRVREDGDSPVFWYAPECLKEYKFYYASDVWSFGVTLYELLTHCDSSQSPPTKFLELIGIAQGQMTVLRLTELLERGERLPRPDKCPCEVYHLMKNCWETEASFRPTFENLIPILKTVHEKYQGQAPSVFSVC
Conditions: not given
The procedure: The inhibitory potency of compounds of the disclosure against the Tyk2 kinase activity on STAT4 was evaluated using an MSD-platform plate-based assay format. NK92 cells natively expressing STAT4 and Tyk2 were serum-starved to reduce background phosphorylation levels, then cells were treated compounds for 1 hr with a 10-point four-fold dilution series starting at 10 μM. Cells were then stimulated with 30 ng/mL […] for 15 minutes. […] The data were normalized and the percent activity versus log concentration of compound were fitted with a 4-parameter logistic model to generate to generate IC50 curves.
Broadly, the IC50 is the concentration needed to halve the response being measured. The low end stands for greater potency in that assay, the high end for weaker potency in that assay. With `CCc1cc(Nc2cc(NC(C)=O)ncc2-c2ccc(F)c(CN3C[C@@H]4C[C@H]3CO4)n2)nc(C(C)(F)F)n1` [Example 906, N-(6-(((1S,4S)-2-oxa-5-azabicyclo[2.2.1]heptan-5-yl)methyl)-4′-((2-(1,1-difluoroethyl)-6-ethylpyrimidin-4-yl)amino)-5-fluoro-[2,3′-bipyridin]-6′-yl)acetamide], the concentration for half-maximal inhibition (IC50) was at most 10 nM. The same measure, in the same setting: the result for `CC(=O)Nc1cc(Nc2cc(C)nc(C(C)(F)F)n2)c(-c2ccn(C(F)F)n2)cn1` [Example 811, N-(4-((2-(1,1-difluoroethyl)-6-methylpyrimidin-4-yl)amino)-5-(1-(difluoromethyl)-1H-pyrazol-3-yl)pyridin-2-yl)acetamide] reads 10 to 100 nM. Still for that read-out and setting: for `CCc1cc(Nc2cc(NC(C)=O)ncc2-c2ccnc(CN3C[C@H]4C[C@@H](C3)O4)n2)nc(C(C)(F)F)n1` [Example 913, N-(5-(2-(((1R,5S)-6-oxa-3-azabicyclo[3.1.1]heptan-3-yl)methyl)pyrimidin-4-yl)-4-((2-(1,1-difluoroethyl)-6-ethylpyrimidin-4-yl)amino)pyridin-2-yl)acetamide] the value was 10 to 100 nM.

For the compound `CCc1cc(Nc2cc(NC(C)=O)ncc2-c2ccc(F)c(CN3C[C@H]4C[C@@H](C3)O4)n2)nc(C(C)(F)F)n1` [Example 915, N-(6-(((1R,5S)-6-oxa-3-azabicyclo[3.1.1]heptan-3-yl)methyl)-4′-((2-(1,1-difluoroethyl)-6-ethylpyrimidin-4-yl)amino)-5-fluoro-[2,3′-bipyridin]-6′-yl)acetamide], the IC50 is at most 10 nM. The same measure, in the same setting: the result for `CN1CCc2sc(-c3cnc(NC=O)cc3Nc3ccnc(C(C)(F)F)n3)nc2C1` [Example 796, N-(4-((2-(1,1-difluoroethyl)pyrimidin-4-yl)amino)-5-(5-methyl-4,5,6,7-tetrahydrothiazolo[4,5-c]pyridin-2-yl)pyridin-2-yl)formamide] reads 10 to 100 nM. In the case of `CCc1cc(Nc2cc(NC(C)=O)ncc2-c2ccc(CN3C[C@H]4C[C@@H](C3)O4)cn2)nc(C(C)(F)F)n1` [Example 912, N-(5-(((1R,5S)-6-oxa-3-azabicyclo[3.1.1]heptan-3-yl)methyl)-4′-((2-(1,1-difluoroethyl)-6-ethylpyrimidin-4-yl)amino)-[2,3′-bipyridin]-6′-yl)acetamide], the IC50 is at most 10 nM.

`CCc1cc(Nc2cc(NC(C)=O)ncc2-c2cc(CN3C[C@@H]4C[C@H]3CO4)ncn2)nc(C(C)(F)F)n1` [Example 905, N-(5-(6-(((1S,4S)-2-oxa-5-azabicyclo[2.2.1]heptan-5-yl)methyl)pyrimidin-4-yl)-4-((2-(1,1-difluoroethyl)-6-ethylpyrimidin-4-yl)amino)pyridin-2-yl)acetamide]: the concentration for half-maximal inhibition (IC50) is 10 to 100 nM.

The same experiment, now with this note: MSD.
In turn, `CC(=O)Nc1cc(Nc2ccnc(C(C)(F)F)n2)c(-c2nc3c(s2)CN(C)C3)cn1` [Example 284, N-(4-((2-(1,1-difluoroethyl)pyrimidin-4-yl)amino)-5-(5-methyl-5,6-dihydro-4H-pyrrolo[3,4-d]thiazol-2-yl)pyridin-2-yl)acetamide] had an IC50 of 10 to 100 nM. On to `CC(=O)Nc1cc(Nc2cc(C)nc(C(C)(F)F)n2)c(OCc2ccc(C)cn2)cn1` [Example 130, N-(4-((2-(1,1-difluoroethyl)-6-methylpyrimidin-4-yl)amino)-5-((5-methylpyridin-2-yl)methoxy)pyridin-2-yl)acetamide], for which the half-maximal inhibitory concentration (IC50) lay within 10 to 100 nM. Still for that read-out and setting: the result for `CC(=O)Nc1cc(Nc2cc(C)nc(C(C)(F)F)n2)c(OCC2CCN(C)C2)cn1` (stereo not shown) [Example 480, N-(4-((2-(1,1-difluoroethyl)-6-methylpyrimidin-4-yl)amino)-5-((1-methylpyrrolidin-3-yl)methoxy)pyridin-2-yl)acetamide] reads 10 to 100 nM; that for `CC(=O)Nc1cc(Nc2cc(C)nc(C(C)(F)F)n2)c(-c2cccc(C3CCCO3)n2)cn1` (stereo not shown) [Example 639, N-(4′-((2-(1,1-difluoroethyl)-6-methylpyrimidin-4-yl)amino)-6-(tetrahydrofuran-2-yl)-[2,3′-bipyridin]-6′-yl)acetamide], at most 10 nM; that for `COc1cccc(COc2cnc(NC(C)=O)cc2Nc2cc(C)nc(C(C)(F)F)n2)n1` [Example 132, N-(4-((2-(1,1-difluoroethyl)-6-methylpyrimidin-4-yl)amino)-5-((6-methoxypyridin-2-y1)methoxy)pyridin-2-yl)acetamide], 10 to 100 nM. The same measure, in the same setting: for `COCCOc1cnc(NC(C)=O)cc1Nc1cccc(C(F)CF)n1` (stereo not shown) [Example 73, N-(4-((6-(1,2-difluoroethyl)pyridin-2-yl)amino)-5-(2-methoxyethoxy)pyridin-2-yl)acetamide] the value was 10 to 100 nM; for `CC(=O)Nc1cc(Nc2cc(C)nc(C(C)(F)F)n2)c(-c2ccc([C@@H]3COCCN3C)cn2)cn1` (single isomer, unassigned) [Example 646, (R)-N-(4′-((2-(1,1-difluoroethyl)-6-methylpyrimidin-4-yl)amino)-5-(4-methylmorpholin-3-yl)-[2,3′-bipyridin]-6′-yl)acetamide or (S)-N-(4′-((2-(1,1-difluoroethyl)-6-methylpyrimidin-4-yl)amino)-5-(4-methylmorpholin-3-yl)-[2,3′-bipyridin]-6′-yl)acetamide], at most 10 nM; for `COCCc1cncc(-c2cnc(NC(C)=O)cc2Nc2cc(C)nc(C(C)(F)F)n2)n1` [Example 664, N-(4-((2-(1,1-difluoroethyl)-6-methylpyrimidin-4-yl)amino)-5-(6-(2-methoxyethyl)pyrazin-2-yl)pyridin-2-yl)acetamide], 10 to 100 nM.

In turn, `COC(C)CCOc1cnc(NC(C)=O)cc1Nc1cc(C)nc(C(C)(F)F)n1` (stereo not shown) [Example 137, N-(4-((2-(1,1-difluoroethyl)-6-methylpyrimidin-4-yl)amino)-5-(3-methoxybutoxy)pyridin-2-yl)acetamide] had a concentration for half-maximal inhibition (IC50) of 10 to 100 nM.

On to `CC(=O)Nc1cc(Nc2cc(C)nc(C(C)(F)F)n2)c(OCc2cc(C)sn2)cn1` [Example 115, N-(4-((2-(1,1-difluoroethyl)-6-methylpyrimidin-4-yl)amino)-5-((5-methylisothiazol-3-yl)methoxy)pyridin-2-yl)acetamide], for which the IC50 was at most 10 nM. Same read-out and setting: for `CC(=O)Nc1cc(Nc2cc(C)nc(C(C)(F)F)n2)c(OCc2ccc(C#N)cn2)cn1` [Example 131, N-(5-((5-cyanopyridin-2-yl)methoxy)-4-((2-(1,1-difluoroethyl)-6-methylpyrimidin-4-yl)amino)pyridin-2-yl)acetamide] the value was 10 to 100 nM; for `CC(=O)Nc1cc(Nc2cc(C)nc(C(C)(F)F)n2)c(-c2ccc3c(n2)CCOC3)cn1` [Example 679, N-(4-((2-(1,1-difluoroethyl)-6-methylpyrimidin-4-yl)amino)-5-(7,8-dihydrO5H-pyrano[4,3-b]pyridin-2-yl)pyridin-2-yl)acetamide], at most 10 nM.

`CC(=O)Nc1cc(Nc2cc(C)nc(C34COC(C3)C4)n2)c(-c2ccc(N3CCOCC3)cn2)cn1` [Example 574, N-(4′-((2-(2-oxabicyclo[2.1.1]hexan-4-yl)-6-methylpyrimidin-4-yl)amino)-5-morpholinO[2,3′-bipyridin]-6′-yl)acetamide] yielded an IC50 of at most 10 nM. `CC(=O)Nc1cc(Nc2cc(C)nc(C(C)(F)F)n2)c(OCc2cc(C)ccn2)cn1` [Example 133, N-(4-((2-(1,1-difluoroethyl)-6-methylpyrimidin-4-yl)amino)-5-((4-methylpyridin-2-yl)methoxy)pyridin-2-yl)acetamide] had an IC50 of at most 10 nM.

Compound `CC(=O)Nc1cc(Nc2cc(C)nc(C(C)(F)F)n2)c(OCc2nccs2)cn1` [Example 108, N-(4-((2-(1,1-difluoroethyl)-6-methylpyrimidin-4-yl)amino)-5-(thiazol-2-ylmethoxy)pyridin-2-yl)acetamide] came in with an IC50 of 10 to 100 nM.

Turning to `CC(=O)Nc1cc(Nc2cc(C)nc(C(C)(F)F)n2)c(-c2nccc(N3CCOCC3)n2)cn1` [Example 674, N-(4-((2-(1,1-difluoroethyl)-6-methylpyrimidin-4-yl)amino)-5-(4-morpholinopyrimidin-2-yl)pyridin-2-yl)acetamide], the concentration for half-maximal inhibition (IC50) was at least 1000 nM.

On to `CC(=O)Nc1cc(Nc2cc(C)nc(C(C)(F)F)n2)c(-c2ccc([C@H]3COCCN3C)cn2)cn1` (single isomer, unassigned) [Example 645, (S)-N-(4′-((2-(1,1-difluoroethyl)-6-methylpyrimidin-4-yl)amino)-5-(4-methylmorpholin-3-yl)-[2,3′-bipyridin]-6′-yl)acetamide or (R)-N-(4′-((2-(1,1-difluoroethyl)-6-methylpyrimidin-4-yl)amino)-5-(4-methylmorpholin-3-yl)-[2,3′-bipyridin]-6′-yl)acetamide], for which the half-inhibitory concentration (IC50) was at most 10 nM. In turn, `CC(=O)Nc1cc(Nc2cc(C)nc(C(C)(F)F)n2)c(OCCN2CCN(C)CC2)cn1` [Example 106, N-(4-((2-(1,1-difluoroethyl)-6-methylpyrimidin-4-yl)amino)-5-(2-(4-methylpiperazin-1-yl)ethoxy)pyridin-2-yl)acetamide] had an IC50 of 10 to 100 nM.

The compound `CC(=O)Nc1cc(Nc2cc(C)nc(C(C)(F)F)n2)c(OCc2cnccn2)cn1` [Example 126, N-(4-((2-(1,1-difluoroethyl)-6-methylpyrimidin-4-yl)amino)-5-(pyrazin-2-ylmethoxy)pyridin-2-yl)acetamide] displayed an IC50 of 10 to 100 nM. `COc1cc(Nc2cc(NC(C)=O)ncc2-c2ccn(C)n2)nc(C(C)(F)F)c1` [Example 209, N-(4-((6-(1,1-difluoroethyl)-4-methoxypyridin-2-yl)amino)-5-(1-methyl-1H-pyrazol-3-yl)pyridin-2-yl)acetamide] came in with a concentration for half-maximal inhibition (IC50) of at most 10 nM.

In turn, `CC(=O)Nc1cc(Nc2cc(C)nc(C(C)(F)F)n2)c(-c2nn(C)cc2F)cn1` [Example 616, N-(4-((2-(1,1-difluoroethyl)-6-methylpyrimidin-4-yl)amino)-5-(4-fluorO1-methyl-1H-pyrazol-3-yl)pyridin-2-yl)acetamide] had a half-maximal inhibitory concentration (IC50) of 10 to 100 nM.
